Results taken from the SangsterLogP compilation.

Test: method code SF-AS, from DOI: 10.1080/02772249909358822

SMILES | logP
COc1ccc(C(C#N)=NOP(=S)(OC(C)C)OC(C)C)cc1OC | 0.47
CCOP(=S)(OCC)ON=C(C#N)c1ccc(Cl)cc1 | 0.47
CC(C)OP(=O)(ON=C(C#N)c1ccc(Cl)cc1)OC(C)C | -0.2
CC(C)OP(=O)(O/N=C(/C#N)c1ccccc1)OC(C)C | 0.06
COC(=O)c1oc2ccccc2c1C(C#N)=NOP(=O)(OC(C)C)OC(C)C | 1.36
CCOP(=S)(OCC)ON=C(C#N)c1csc2ccccc12 | 2.56
CCOP(=S)(OCC)ON=C(C#N)c1ccc(F)cc1 | 0.35
CCOP(=S)(OCC)ON=C(C#N)c1ccc(OC)c(OC)c1 | -0.19
CC(C)OP(=S)(O/N=C(/C#N)c1ccccc1)OC(C)C | 2.07
CCCCOP(=O)(OCCCC)ON=C(C#N)c1csc2ccccc12 | 2.73
CCOP(=O)(OCC)ON=C(C#N)c1csc2ccccc12 | 0.56
CC(C)OP(=O)(ON=C(C#N)c1ccc(F)cc1)OC(C)C | -0.43
COc1ccc(C(C#N)=NOP(=O)(OC(C)C)OC(C)C)cc1OC | -0.38
COP(=O)(OC)ON=C(C#N)c1ccc(F)cc1 | -1.08
CC(C)OP(=O)(ON=C(C#N)c1csc2ccccc12)OC(C)C | 1.56
COP(=O)(OC)ON=C(C#N)c1csc2ccccc12 | 0.76
COP(=O)(OC)O/N=C(/C#N)c1ccccc1 | -1.01
COP(=S)(OC)ON=C(C#N)c1csc2ccccc12 | 1.94
CCCOP(=O)(OCCC)ON=C(C#N)c1csc2ccccc12 | 1.67
